Blank lines part the entries; values can stand above or below the compound they belong to.
Columns and labels:
Test in all cases: radiometric filter-binding kinase assay
[1] = test system: AKT1 (human), P31749 [S473D]
BRSK2 (human) = BRSK2 (human) (UniProt Q8IWQ3)
BTK (human) = BTK (human) (UniProt Q06187)
CSK (human) = CSK (human) (UniProt P41240)
CSNK1D (human) = CSNK1D (human) (UniProt P48730)
EEF2K (human) = EEF2K (human) (UniProt O00418)
FGFR1 (human) = FGFR1 (human) (UniProt P11362)
GSK3B (human) = GSK3B (human) (UniProt P49841)
Sequence of GSK3B (human) (P49841 whole entry, looked up): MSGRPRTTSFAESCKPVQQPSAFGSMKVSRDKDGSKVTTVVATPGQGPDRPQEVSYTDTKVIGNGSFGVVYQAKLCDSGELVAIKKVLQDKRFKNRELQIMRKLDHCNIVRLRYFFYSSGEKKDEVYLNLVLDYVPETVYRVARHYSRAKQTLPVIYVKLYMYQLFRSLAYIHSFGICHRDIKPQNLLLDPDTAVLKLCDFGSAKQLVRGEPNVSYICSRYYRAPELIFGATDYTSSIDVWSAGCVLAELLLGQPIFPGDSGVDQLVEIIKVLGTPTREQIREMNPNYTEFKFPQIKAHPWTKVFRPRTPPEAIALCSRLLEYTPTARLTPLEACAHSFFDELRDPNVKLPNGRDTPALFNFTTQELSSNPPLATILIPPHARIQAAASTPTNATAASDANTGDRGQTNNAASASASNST

IKBKB (human) = IKBKB (human) (UniProt O14920)
Sequence of IKBKB (human) (O14920 whole entry, looked up): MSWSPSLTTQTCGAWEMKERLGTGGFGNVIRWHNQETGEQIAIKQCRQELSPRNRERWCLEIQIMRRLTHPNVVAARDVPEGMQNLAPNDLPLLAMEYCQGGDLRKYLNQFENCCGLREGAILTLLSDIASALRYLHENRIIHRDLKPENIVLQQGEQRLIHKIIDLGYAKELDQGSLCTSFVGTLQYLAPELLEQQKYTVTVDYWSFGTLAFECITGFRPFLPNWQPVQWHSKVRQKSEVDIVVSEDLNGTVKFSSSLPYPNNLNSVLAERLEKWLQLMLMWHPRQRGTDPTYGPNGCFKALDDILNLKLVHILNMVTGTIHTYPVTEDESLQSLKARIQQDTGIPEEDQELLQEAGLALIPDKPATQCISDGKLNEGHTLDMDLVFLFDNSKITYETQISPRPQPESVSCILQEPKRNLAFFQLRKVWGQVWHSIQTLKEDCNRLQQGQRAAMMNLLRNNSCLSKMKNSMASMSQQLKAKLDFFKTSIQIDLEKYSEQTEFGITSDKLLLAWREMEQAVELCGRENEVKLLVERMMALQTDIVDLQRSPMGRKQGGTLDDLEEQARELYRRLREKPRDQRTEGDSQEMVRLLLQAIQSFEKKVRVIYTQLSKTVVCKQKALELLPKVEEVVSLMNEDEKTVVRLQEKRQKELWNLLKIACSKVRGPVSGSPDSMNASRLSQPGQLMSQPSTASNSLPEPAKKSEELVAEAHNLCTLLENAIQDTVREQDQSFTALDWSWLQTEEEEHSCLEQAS

MAPK1 (human) = MAPK1 (human) (UniProt P28482)
MAPK15 (human) = MAPK15 (human) (UniProt Q8TD08)
MAPK3 (human) = MAPK3 (human) (UniProt P27361)
Sequence of MAPK3 (human) (P27361 whole entry, looked up): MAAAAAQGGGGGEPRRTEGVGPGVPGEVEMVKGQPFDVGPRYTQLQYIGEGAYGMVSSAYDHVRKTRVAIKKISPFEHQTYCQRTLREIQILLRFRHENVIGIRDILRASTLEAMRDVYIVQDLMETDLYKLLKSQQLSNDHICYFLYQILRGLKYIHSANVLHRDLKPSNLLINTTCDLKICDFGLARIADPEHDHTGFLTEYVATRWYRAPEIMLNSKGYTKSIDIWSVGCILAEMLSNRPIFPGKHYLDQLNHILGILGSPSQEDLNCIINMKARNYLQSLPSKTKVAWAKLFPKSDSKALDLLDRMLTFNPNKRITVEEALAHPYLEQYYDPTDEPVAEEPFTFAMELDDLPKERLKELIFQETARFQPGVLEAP

MAPK8 (human) = MAPK8 (human) (UniProt P45983)
MAPK9 (human) = MAPK9 (human) (UniProt P45984)
MKNK2 (human) = MKNK2 (human) (UniProt Q9HBH9)
NEK6 (human) = NEK6 (human) (UniProt Q9HC98)
PAK7 (human) = PAK7 (human) (UniProt Q9P286)
PLK1 (human) = PLK1 (human) (UniProt P53350)
RPS6KA3 KD1 KD2 (human) = RPS6KA3 KD1 KD2 (human) (UniProt P51812)
Sequence of RPS6KA3 KD1 KD2 (human) (P51812 whole entry, looked up): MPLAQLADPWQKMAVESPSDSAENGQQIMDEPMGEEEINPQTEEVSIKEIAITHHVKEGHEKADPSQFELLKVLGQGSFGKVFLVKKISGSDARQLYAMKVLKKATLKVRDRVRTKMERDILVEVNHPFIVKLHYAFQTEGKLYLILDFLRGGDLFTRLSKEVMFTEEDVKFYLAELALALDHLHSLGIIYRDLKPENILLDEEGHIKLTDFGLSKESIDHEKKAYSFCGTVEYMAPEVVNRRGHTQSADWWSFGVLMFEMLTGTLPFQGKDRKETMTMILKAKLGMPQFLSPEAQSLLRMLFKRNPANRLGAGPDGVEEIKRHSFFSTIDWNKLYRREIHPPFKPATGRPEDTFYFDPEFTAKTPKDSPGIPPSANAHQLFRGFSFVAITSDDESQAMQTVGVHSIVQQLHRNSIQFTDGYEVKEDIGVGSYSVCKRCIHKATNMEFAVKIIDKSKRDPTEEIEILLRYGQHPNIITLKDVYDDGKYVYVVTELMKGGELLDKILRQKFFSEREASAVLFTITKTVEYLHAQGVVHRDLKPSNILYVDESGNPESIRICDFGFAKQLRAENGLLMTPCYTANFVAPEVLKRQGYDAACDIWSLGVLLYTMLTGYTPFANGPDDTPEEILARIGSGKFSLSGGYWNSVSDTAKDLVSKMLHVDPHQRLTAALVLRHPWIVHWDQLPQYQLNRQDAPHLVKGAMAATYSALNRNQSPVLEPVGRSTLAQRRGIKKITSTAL

RPS6KA5 KD1 KD2 (human) = RPS6KA5 KD1 KD2 (human) (UniProt O75582)
SRPK1 (human) = SRPK1 (human) (UniProt Q96SB4)
TBK1 (human) = TBK1 (human) (UniProt Q9UHD2)

Sequence of EEF2K (human) (O00418 whole entry, looked up): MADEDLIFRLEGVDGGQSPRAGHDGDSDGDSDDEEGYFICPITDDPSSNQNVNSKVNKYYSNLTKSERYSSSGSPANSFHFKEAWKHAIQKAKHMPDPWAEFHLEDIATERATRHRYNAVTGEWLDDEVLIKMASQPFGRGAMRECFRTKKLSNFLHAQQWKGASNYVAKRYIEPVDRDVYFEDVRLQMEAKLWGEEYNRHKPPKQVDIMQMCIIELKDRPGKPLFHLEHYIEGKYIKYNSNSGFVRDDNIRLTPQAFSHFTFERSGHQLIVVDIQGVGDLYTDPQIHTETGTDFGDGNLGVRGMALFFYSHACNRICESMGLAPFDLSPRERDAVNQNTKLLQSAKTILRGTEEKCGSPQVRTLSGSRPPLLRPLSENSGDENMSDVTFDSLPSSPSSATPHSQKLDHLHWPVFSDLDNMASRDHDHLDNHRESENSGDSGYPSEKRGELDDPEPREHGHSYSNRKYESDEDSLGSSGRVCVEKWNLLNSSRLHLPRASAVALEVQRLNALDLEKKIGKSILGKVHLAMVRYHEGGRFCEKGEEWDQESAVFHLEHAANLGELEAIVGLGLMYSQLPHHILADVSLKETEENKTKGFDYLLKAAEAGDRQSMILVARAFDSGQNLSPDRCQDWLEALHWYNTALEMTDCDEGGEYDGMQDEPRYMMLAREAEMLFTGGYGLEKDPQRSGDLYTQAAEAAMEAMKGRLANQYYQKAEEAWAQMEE
Sequence of BRSK2 (human) (Q8IWQ3 whole entry, looked up): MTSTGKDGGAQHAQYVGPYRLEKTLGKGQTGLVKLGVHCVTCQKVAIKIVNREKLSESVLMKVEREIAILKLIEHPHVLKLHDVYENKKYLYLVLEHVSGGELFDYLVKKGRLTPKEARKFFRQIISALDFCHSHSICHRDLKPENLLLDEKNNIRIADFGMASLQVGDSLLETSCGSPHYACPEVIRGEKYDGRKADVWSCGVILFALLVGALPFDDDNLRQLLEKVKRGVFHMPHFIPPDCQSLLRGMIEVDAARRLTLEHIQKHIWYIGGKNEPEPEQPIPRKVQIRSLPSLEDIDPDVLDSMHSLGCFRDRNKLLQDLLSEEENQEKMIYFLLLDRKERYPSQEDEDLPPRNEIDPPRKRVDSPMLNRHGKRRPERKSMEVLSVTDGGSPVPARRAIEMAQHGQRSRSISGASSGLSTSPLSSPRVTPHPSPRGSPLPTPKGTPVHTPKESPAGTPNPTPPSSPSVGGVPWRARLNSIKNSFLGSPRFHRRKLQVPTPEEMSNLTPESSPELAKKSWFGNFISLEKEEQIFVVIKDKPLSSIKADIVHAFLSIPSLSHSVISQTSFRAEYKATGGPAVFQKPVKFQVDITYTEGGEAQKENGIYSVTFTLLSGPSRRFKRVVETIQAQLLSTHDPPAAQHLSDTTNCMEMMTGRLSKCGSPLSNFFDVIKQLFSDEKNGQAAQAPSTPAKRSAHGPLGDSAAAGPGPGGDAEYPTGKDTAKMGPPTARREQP
Sequence of CSNK1D (human) (P48730 whole entry, looked up): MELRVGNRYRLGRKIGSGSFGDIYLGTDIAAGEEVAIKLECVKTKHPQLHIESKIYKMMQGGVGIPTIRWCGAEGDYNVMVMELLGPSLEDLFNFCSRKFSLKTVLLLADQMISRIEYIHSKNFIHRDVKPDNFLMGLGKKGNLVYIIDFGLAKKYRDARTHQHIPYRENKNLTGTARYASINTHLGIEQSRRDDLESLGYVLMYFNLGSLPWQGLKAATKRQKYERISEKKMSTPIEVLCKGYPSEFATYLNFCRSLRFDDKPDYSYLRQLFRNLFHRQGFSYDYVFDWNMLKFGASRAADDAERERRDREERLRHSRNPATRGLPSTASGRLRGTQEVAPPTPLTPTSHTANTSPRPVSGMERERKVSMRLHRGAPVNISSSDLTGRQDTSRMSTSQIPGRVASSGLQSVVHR
Sequence of BTK (human) (Q06187 whole entry, looked up): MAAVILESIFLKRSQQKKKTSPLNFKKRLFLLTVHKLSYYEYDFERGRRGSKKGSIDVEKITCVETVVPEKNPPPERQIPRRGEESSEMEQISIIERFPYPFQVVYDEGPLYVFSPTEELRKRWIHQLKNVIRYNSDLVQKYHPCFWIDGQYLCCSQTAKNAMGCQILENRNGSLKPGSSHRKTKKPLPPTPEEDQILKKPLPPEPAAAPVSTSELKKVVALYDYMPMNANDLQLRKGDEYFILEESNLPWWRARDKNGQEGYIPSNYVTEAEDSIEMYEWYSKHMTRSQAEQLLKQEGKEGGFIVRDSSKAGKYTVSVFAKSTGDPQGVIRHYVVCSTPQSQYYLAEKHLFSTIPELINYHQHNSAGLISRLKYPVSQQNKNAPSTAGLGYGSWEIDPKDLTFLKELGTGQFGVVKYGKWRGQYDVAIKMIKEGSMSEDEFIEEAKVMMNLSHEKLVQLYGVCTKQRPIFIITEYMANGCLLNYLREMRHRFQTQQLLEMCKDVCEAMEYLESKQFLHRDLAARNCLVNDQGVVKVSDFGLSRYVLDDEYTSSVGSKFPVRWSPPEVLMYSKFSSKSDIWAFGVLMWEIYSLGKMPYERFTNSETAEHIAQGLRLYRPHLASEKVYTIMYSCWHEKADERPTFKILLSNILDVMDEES

residual activity ([1]; compound 0.1 µM): 90% | residual activity ([1]; compound 1.0 µM): 101% | residual activity (BRSK2 (human); compound 0.1 µM): 99% | residual activity (BRSK2 (human); compound 1.0 µM): 97% | residual activity (BTK (human); compound 0.1 µM): 79% | residual activity (BTK (human); compound 1.0 µM): 78% | residual activity (CSK (human); compound 0.1 µM): 100% | residual activity (CSK (human); compound 1.0 µM): 103% | residual activity (CSNK1D (human); compound 0.1 µM): 118% | residual activity (CSNK1D (human); compound 1.0 µM): 120% | residual activity (EEF2K (human); compound 0.1 µM): 88% | residual activity (EEF2K (human); compound 1.0 µM): 92% | residual activity (FGFR1 (human); compound 0.1 µM): 118% | residual activity (FGFR1 (human); compound 1.0 µM): 112% | residual activity (GSK3B (human); compound 0.1 µM): 102% | residual activity (GSK3B (human); compound 1.0 µM): 101% | residual activity (IKBKB (human); compound 0.1 µM): 90% | residual activity (IKBKB (human); compound 1.0 µM): 100% | residual activity (MAPK1 (human); compound 0.1 µM): 96% | residual activity (MAPK1 (human); compound 1.0 µM): 101% | residual activity (MAPK3 (human); compound 0.1 µM): 99% | residual activity (MAPK3 (human); compound 1.0 µM): 113% | residual activity (MAPK8 (human); compound 0.1 µM): 92% | residual activity (MAPK8 (human); compound 1.0 µM): 78% | residual activity (MAPK9 (human); compound 0.1 µM): 94% | residual activity (MAPK9 (human); compound 1.0 µM): 100% | residual activity (MKNK2 (human); compound 0.1 µM): 87% | residual activity (MKNK2 (human); compound 1.0 µM): 91% | residual activity (NEK6 (human); compound 0.1 µM): 79% | residual activity (NEK6 (human); compound 1.0 µM): 89% | residual activity (PAK7 (human); compound 0.1 µM): 102% | residual activity (PAK7 (human); compound 1.0 µM): 114% | residual activity (PLK1 (human); compound 0.1 µM): 92% | residual activity (PLK1 (human); compound 1.0 µM): 95% | residual activity (RPS6KA3 KD1 KD2 (human); compound 0.1 µM): 98% | residual activity (RPS6KA3 KD1 KD2 (human); compound 1.0 µM): 79% | residual activity (RPS6KA5 KD1 KD2 (human); compound 0.1 µM): 80% | residual activity (RPS6KA5 KD1 KD2 (human); compound 1.0 µM): 82% | residual activity (SRPK1 (human); compound 0.1 µM): 93% | residual activity (SRPK1 (human); compound 1.0 µM): 97% | residual activity (TBK1 (human); compound 0.1 µM): 92% | residual activity (TBK1 (human); compound 1.0 µM): 96%
Structure (SMILES): Cn1c(=O)c2c(ncn2C)n(C)c1=O
residual activity (MAPK15 (human); compound 0.1 µM): 88% | residual activity (MAPK15 (human); compound 1.0 µM): 95%

residual activity ([1]; compound 0.1 µM): 85% | residual activity ([1]; compound 1.0 µM): 69% | residual activity ([1]; compound 10.0 µM): 62% | residual activity (BRSK2 (human); compound 0.1 µM): 13% | residual activity (BRSK2 (human); compound 1.0 µM): 10% | residual activity (BRSK2 (human); compound 10.0 µM): 18% | residual activity (BTK (human); compound 0.1 µM): 86% | residual activity (BTK (human); compound 1.0 µM): 29% | residual activity (BTK (human); compound 10.0 µM): 9% | residual activity (CSK (human); compound 0.1 µM): 98% | residual activity (CSK (human); compound 1.0 µM): 69% | residual activity (CSK (human); compound 10.0 µM): 42% | residual activity (CSNK1D (human); compound 0.1 µM): 90% | residual activity (CSNK1D (human); compound 1.0 µM): 59% | residual activity (CSNK1D (human); compound 10.0 µM): 20% | residual activity (EEF2K (human); compound 0.1 µM): 102% | residual activity (EEF2K (human); compound 1.0 µM): 86% | residual activity (EEF2K (human); compound 10.0 µM): 116% | residual activity (FGFR1 (human); compound 0.1 µM): 17% | residual activity (FGFR1 (human); compound 1.0 µM): 2% | residual activity (FGFR1 (human); compound 10.0 µM): 1% | residual activity (GSK3B (human); compound 0.1 µM): 11% | residual activity (GSK3B (human); compound 1.0 µM): 7% | residual activity (GSK3B (human); compound 10.0 µM): 3% | residual activity (IKBKB (human); compound 0.1 µM): 75% | residual activity (IKBKB (human); compound 10.0 µM): 26% | residual activity (MAPK1 (human); compound 0.1 µM): 81% | residual activity (MAPK1 (human); compound 1.0 µM): 41% | residual activity (MAPK1 (human); compound 10.0 µM): 16% | residual activity (MAPK3 (human); compound 0.1 µM): 71% | residual activity (MAPK3 (human); compound 10.0 µM): 4% | residual activity (MAPK8 (human); compound 0.1 µM): 124% | residual activity (MAPK8 (human); compound 1.0 µM): 99% | residual activity (MAPK8 (human); compound 10.0 µM): 48% | residual activity (MAPK9 (human); compound 1.0 µM): 43% | residual activity (MAPK9 (human); compound 10.0 µM): 17% | residual activity (MKNK2 (human); compound 0.1 µM): 75% | residual activity (MKNK2 (human); compound 1.0 µM): 46% | residual activity (MKNK2 (human); compound 10.0 µM): 16% | residual activity (NEK6 (human); compound 0.1 µM): 92% | residual activity (NEK6 (human); compound 1.0 µM): 76% | residual activity (NEK6 (human); compound 10.0 µM): 38% | residual activity (PAK7 (human); compound 0.1 µM): 75% | residual activity (PAK7 (human); compound 1.0 µM): 43% | residual activity (PAK7 (human); compound 10.0 µM): 8% | residual activity (PLK1 (human); compound 0.1 µM): 86% | residual activity (PLK1 (human); compound 1.0 µM): 42% | residual activity (PLK1 (human); compound 10.0 µM): 18% | residual activity (RPS6KA3 KD1 KD2 (human); compound 0.1 µM): 38% | residual activity (RPS6KA3 KD1 KD2 (human); compound 1.0 µM): 32% | residual activity (RPS6KA3 KD1 KD2 (human); compound 10.0 µM): 22% | residual activity (RPS6KA5 KD1 KD2 (human); compound 0.1 µM): 98% | residual activity (RPS6KA5 KD1 KD2 (human); compound 1.0 µM): 73% | residual activity (RPS6KA5 KD1 KD2 (human); compound 10.0 µM): 30% | residual activity (SRPK1 (human); compound 0.1 µM): 90% | residual activity (SRPK1 (human); compound 1.0 µM): 75% | residual activity (SRPK1 (human); compound 10.0 µM): 36% | residual activity (TBK1 (human); compound 0.1 µM): 27% | residual activity (TBK1 (human); compound 1.0 µM): 7% | residual activity (TBK1 (human); compound 10.0 µM): 11%
Structure (SMILES): NC(=O)Nc1ccc2c(c1)/C(=C/c1cc(-c3cccnc3)c[nH]1)C(=O)N2
residual activity (MAPK15 (human); compound 0.1 µM): 5% | residual activity (MAPK15 (human); compound 1.0 µM): 2% | residual activity (MAPK15 (human); compound 10.0 µM): 1%

Structure (SMILES): C[C@H]1CCCC(=O)CCC/C=C/c2cc(O)cc(O)c2C(=O)O1
residual activity ([1]; compound 10.0 µM): 95% | residual activity (BRSK2 (human); compound 1.0 µM): 54% | residual activity (BRSK2 (human); compound 10.0 µM): 17% | residual activity (BTK (human); compound 1.0 µM): 107% | residual activity (BTK (human); compound 10.0 µM): 69% | residual activity (CSK (human); compound 1.0 µM): 80% | residual activity (CSK (human); compound 10.0 µM): 64% | residual activity (CSNK1D (human); compound 1.0 µM): 99% | residual activity (CSNK1D (human); compound 10.0 µM): 83% | residual activity (EEF2K (human); compound 1.0 µM): 101% | residual activity (EEF2K (human); compound 10.0 µM): 85% | residual activity (FGFR1 (human); compound 1.0 µM): 90% | residual activity (FGFR1 (human); compound 10.0 µM): 51% | residual activity (GSK3B (human); compound 1.0 µM): 47% | residual activity (GSK3B (human); compound 10.0 µM): 11% | residual activity (IKBKB (human); compound 1.0 µM): 101% | residual activity (IKBKB (human); compound 10.0 µM): 78% | residual activity (MAPK1 (human); compound 1.0 µM): 98% | residual activity (MAPK1 (human); compound 10.0 µM): 96% | residual activity (MAPK15 (human); compound 1.0 µM): 77% | residual activity (MAPK15 (human); compound 10.0 µM): 26% | residual activity (MAPK3 (human); compound 1.0 µM): 113% | residual activity (MAPK3 (human); compound 10.0 µM): 107% | residual activity (MAPK8 (human); compound 1.0 µM): 88% | residual activity (MAPK8 (human); compound 10.0 µM): 80% | residual activity (MAPK9 (human); compound 1.0 µM): 46% | residual activity (MAPK9 (human); compound 10.0 µM): 65% | residual activity (MKNK2 (human); compound 1.0 µM): 64% | residual activity (MKNK2 (human); compound 10.0 µM): 23% | residual activity (NEK6 (human); compound 1.0 µM): 91% | residual activity (NEK6 (human); compound 10.0 µM): 91% | residual activity (PAK7 (human); compound 1.0 µM): 93% | residual activity (PAK7 (human); compound 10.0 µM): 80% | residual activity (PLK1 (human); compound 1.0 µM): 76% | residual activity (PLK1 (human); compound 10.0 µM): 63% | residual activity (RPS6KA3 KD1 KD2 (human); compound 1.0 µM): 80% | residual activity (RPS6KA3 KD1 KD2 (human); compound 10.0 µM): 52% | residual activity (RPS6KA5 KD1 KD2 (human); compound 10.0 µM): 36% | residual activity (SRPK1 (human); compound 1.0 µM): 95% | residual activity (SRPK1 (human); compound 10.0 µM): 89% | residual activity (TBK1 (human); compound 1.0 µM): 82% | residual activity (TBK1 (human); compound 10.0 µM): 80%

From the kinase profiling compilation of Christmann-Franck et al. (2016)
